Test results: PMC7582727, “Functional Impact of BeKm-1, a High-Affinity hERG Blocker, on Cardiomyocytes Derived from Human-Induced Pluripotent Stem Cells” (International Journal of Molecular Sciences, 2020)
pIC50: −log10 of the molar value. Positions of bridges follow the written chain, without caps; N, C: chain ends. Residues, ends and D or L forms follow the SMILES beside them.

How the values were obtained:
[1] = tested on: rabbit heart; design: method as in PMID 21205913; details: ref [8]; cited from earlier work
[2] = tested on: hiPS-CMs (clone C2a, ventricular-like); assay type: cell-based, human
Method: Although the effect of BeKm-1 on APD90 was expected from a block of hERG channels, the other effects (i.e., membrane depolarization, reduction in AP frequency, and decrease of maximal upstroke velocity) are most likely a secondary consequence of the absence of IK1 in hiPS-CMs due to incomplete maturation level of these cells during the differentiation process (a recurrent problem in differentiating hiPS into cardiomyocytes). The 5 nM concentration of BeKm-1 was chosen to spare a fraction of the hERG channels in these cells. Therefore, we also tested a higher concentration (100 nM) in order to affect all hERG channels. […] This observation is coherent with the fact that a stronger IK1 current would be needed in hiPS-CMs to maintain a more negative membrane potential typical for CMs. […] In this technique, a current density of 2.8 pA/pF is injected in order to successfully reach an RMP value of −80 mV. […] Representative APs, paced at a constant cycling length of 700 ms with IK1, are shown before and after the application of 5 nM BeKm-1 (Figure 3A,B). […] Logically, these APs were excluded from further analysis of AP parameters. IK1 in silico injection efficiently allowed for setting a real resting membrane potential (RMP) at −80 mV in these hiPS-CMs, causing the cessation of spontaneous APs (not shown). As a result of IK1 taking the relay over IKr, there was no effect of 5 nM BeKm-1 on RMP (Figure 3C). […] The average prolongation of APD90 and variability is also detailed cell by cell (Figure S3).
hiPS-CMs: All experiments were performed on the human-induced pluripotent stem cell (hiPSC) clone C2a that has been previously characterized, including cardiac differentiation and electrophysiology data. Cells were expanded on stem cell-qualified matrigel-coated plates (0.05 mg/mL; BD Bioscience, Le Pont de Claix, France) and cultured in StemMACS iPS-BREW XF medium (Miltenyi Biotec, Paris, France). Cells were passaged every […] using Gentle Cell Dissociation Buffer (StemCell Technologies, Grenoble, France). Prior to differentiation, cells were cultured as a monolayer in StemMACS iPS-brew supplemented with 1 × Y-27632 Rho-associated, coiled-coil containing protein kinase (ROCK) inhibitor (StemCell Technologies, Grenoble, France). When hiPSCs reached proper confluence, they were differentiated into cardiomyocytes using previously described « Matrix sandwich » protocol. At day 20 ± 1 of differentiation, beating cardiomyocytes were manually dissected and isolated from non-beating cells. Briefly, cardiomyocytes were washed with phosphate-buffered saline (PBS) and treated with TrypLE Express (10x) (Thermo Fisher Scientific, Illkirch-Graffenstaden, France) for 5 min at 37 °C. The enzyme was inactivated by adding RPMI1640 medium containing 20% (vol/vol) KnockOut Serum Replacement (KSR) (Thermo Fisher Scientific, Illkirch-Graffenstaden, France). The supernatant was removed, and cells were suspended in RPMI1640 medium containing 20% (vol/vol) KSR and ROCK inhibitor. Then, the cells were plated on specific supports suitable for functional assessments.
Manual patch clamp: Single-cell dissociated hiPS-CMs were plated at low density on matrigel-coated 35 mm Petri dishes (Nunc from Thermo Fisher Scientific, Illkirch-Graffenstaden, France). Electrophysiological experiments were performed 12 to 14 days after dissociation. APs were recorded in the current-clamp mode, using the amphotericin-B-perforated patch-clamp technique. All experiments were conducted at 37 °C. APs were recorded either at basal state (spontaneous APs) or using the dynamic patch-clamp method to electronically mimic the expression of the inward rectifier potassium current, IK1 [23, 24]. The resting membrane potential (RMP) was set to −80 ± 5 mV by injecting 2 to 2.8 pA/pF in silico IK1 density. This level of current was set so that about 80% of the ventricular-like hiPS-CMs could reach these physiological RMP values. […]

[3] = tested on: hERG channel; details: cited from earlier work
Description: The Kv11.1 channel (hERG) and the corresponding IKr current play a major role in cardiac repolarization (Figure S1). […] Long QT syndrome is one of the cardiac diseases that has been studied in the greatest detail. Type II long QT syndrome is associated with a decrease in IKr currents, as opposed to short QT syndrome, which is associated with increased IKr currents. Type II long QT syndrome is called “inherited” when a mutation in the gene encoding hERG, KCNH2, gives rise to a loss of ... || In this report, we focused on BeKm-1, a toxin that was originally isolated from the venom of Buthus eupeus scorpion. […] According to its 3D structure, the peptide adopts an α-helix and three β-strands organized in a twisted antiparallel β-sheet. By homology with other toxins, BeKm-1 is a member of the γ-KTx subfamily of scorpion toxins.

[4] = 5 nM, dynamic clamp, paced every 700 ms

CC[C@H](C)[C@H](NC(=O)[C@H](CC(=O)O)NC(=O)[C@@H](NC(=O)[C@@H]1CCCN1C(=O)[C@@H](N)CCCNC(=N)N)[C@@H](C)O)C(=O)N[C@@H](CCCCN)C(=O)N[C@H]1CSSC[C@@H]2NC(=O)[C@H](CCCNC(=N)N)NC(=O)CNC(=O)[C@H](CC(N)=O)NC(=O)[C@H]([C@@H](C)O)NC(=O)[C@H](CCCCN)NC(=O)CNC(=O)[C@H](Cc3ccccc3)NC(=O)[C@H](CCCNC(=N)N)NC(=O)[C@H](CO)NC(=O)[C@H](CCCCN)NC(=O)[C@@H]3CSSC[C@@H](C(=O)N[C@@H](Cc4ccccc4)C(=O)O)NC(=O)[C@H](CC(=O)O)NC(=O)[C@H](CSSC[C@H](NC(=O)[C@H](CCC(N)=O)NC(=O)[C@H](Cc4ccc(O)cc4)NC(=O)[C@H](CO)NC(=O)[C@H](CCC(=O)O)NC(=O)[C@H](CO)NC1=O)C(=O)N[C@@H](Cc1ccccc1)C(=O)N1CCC[C@H]1C(=O)N[C@@H](C(C)C)C(=O)N3)NC(=O)[C@H](Cc1ccccc1)NC(=O)CNC(=O)[C@H](CC(N)=O)NC(=O)[C@H](C(C)C)NC2=O [BeKm-1] (H-RPTDIKCSESYQCFPVCKSRFGKTNGRCVNGFCDCF-OH; disulfide 7-28, 13-33, 17-35 (inferred); N-terminus and C-terminus assumed)
QT interval in ECG [1]: prolongs the QT interval
APD90 prolongation ([2]; 5 nM vs vehicle, average, dynamic clamp): 29%
resting membrane potential (RMP) ([2]; 5 nM, RMP set to −80 mV by IK1 injection, paced every 700 ms): no effect
APD90 ([2]; 5 nM, dynamic clamp, cycle length 700 ms, 37 °C, vehicle 121.9 ± 11.0 ms, n = 10, mean ± SEM): 156.7 ± 16.9 ms
AP overshoot [2, 4]: no significant effect
APD30 and APD50 [2, 4]: did not alter
maximal upstroke velocity [2, 4]: no significant effect
APD90 variability ([2]; 5 nM, dynamic clamp, Poincaré plot): greater APD90 variability
selectivity for hERG ([3]; in cardiomyocytes, no ref at the statement): highly selective for the hERG channel in cardiomyocytes
pIC50 ([3]; read-out: IC50, hERG (reported), ref [1],[2],[3],[4]): 7.82 to 8.48
other targets ([3]; ref [1]): no other targets have been reported
channel state blocked ([3]; ref [4]): blocks the closed state of the channel
binding site (face of channel) ([3]; ref [9]): preferentially binds the hERG outer mouth
